Data taken from patent publication US11026944B2, “Compositions and methods for treating insomnia” (Eisai R&D Management Co., Ltd., priority 2014, dated 2021).
Where two headings read alike, the source gives them in different places.

Legend:
[1] = test system: subjects with insomnia; test: 201 Study: population PK and PK/PD analysis; assay type: in vivo, human
Protocol: During the Treatment period, blood samples for plasma concentrations of compound A were obtained within 30 minutes predose each night (except on Day 1) in the clinic and within 1 hour of morning waketime following each night spent in the clinic. Plasma concentrations of compound A were measured using a validated liquid chromatography-tandem mass spectrometry (LC-MS/MS) assay.
The PK/PD Analysis Set was used to evaluate relationships between compound A concentrations and selected PD parameters. The relationships between exposure to compound A and selected PD endpoints (eg. KSS, DSST, RTI) were explored graphically and could be followed by population PK/PD modeling. The relationship between plasma concentrations of compound A at predose (trough), and within 1 hour after morning waketime, and selected PD parameters, was analyzed using Nonmem version 7.2 or later.
Measures of the PD effects of compound A included KSS, RTI, DSST, the WFB (RTI, Rapid Visual Processing [RVP], and Spatial Span [SSP]), POMS, melatonin levels, and the DLMO. Due to high variability and non-normal distribution in change from baseline of LPS, it was not possible to reliably model the concentration-response relationship between compound A PK parameters and LPS. Nonetheless, higher plasma concentrations of compound A were associated with larger decreases in LPS, up to approximately 10 ng/mL. This finding was consistent with the efficacy results, where LPS was decreased at doses of 2.5 mg and higher. […] When modeled, WASO data were best described by log-linear relationships with the maximum observed concentration (Cmax). […] However, subjects whose compound A plasma concentrations were greater than 20 ng/mL at 1 hour after waking had slightly greater increases on the KSS and a higher incidence of AEs of somnolence. This concentration is predicted to be achieved by most subjects receiving doses greater than 10 mg.

[2] = test system: healthy adult subjects; test: 002 Study: PK-PD exploratory analysis of next-day residual sleepiness; assay type: in vivo, human; conditions: 9-10 hours postdose (1-2 hours after morning awakening), Day 2
Protocol: For the PK-PD exploratory analysis of next-day residual sleepiness, population PK model-derived compound A plasma concentrations at 8, 9, and 10 hours following administration on the evening of Day 1 were related to change from baseline on the KSS, PVT Lapses, and DSST at 15 minutes, 1 hour, and 2 hours after waketime on the morning of Day 2, respectively. […] Concentrations below 30 ng/mL (which occur at doses below 25 mg) after 9-10 hours postdose, which correspond to the 1-2 hours after morning awakening, were associated with minimal or no change from baseline on the KSS, PVT Lapses, or DSST.

[3] = Single dose study (001 Study) Part A: plasma PK of compound A; assay type: in vivo; conditions: human, healthy subjects (Part A); for AUC from 0 to 24 h / AUC(0-inf) / AUC(0-t) / Cmax / half-life / Tmax: plasma, po; for AUC from 0 to 24 h: read-out: AUC(0-24) Mean(SD); for AUC(0-inf): read-out: AUC(0-inf) Mean(SD); for AUC(0-t): read-out: AUC(0-t) Mean(SD); for Cmax: read-out: Cmax Mean(SD); for half-life: read-out: t1/2 Median (converted); for Tmax: read-out: tmax Median; for concentration at 9 h: read-out: C9 Mean(SD)
Source text: This was a randomized, double-blind, placebo- and active-controlled, sequential, single-dose study. The study consisted of two parts, Part A (healthy subjects) and Part B (otherwise healthy subjects with primary insomnia).
For Part A, 64 healthy subjects were enrolled into cohorts sequentially in a gradual dose escalation manner, to receive either compound A or placebo, and stratified by gender. Each cohort comprised six compound A- and two placebo-treated subjects. All study drugs were administered as single doses using one or more compound A-capsules or compound A-matched placebo capsules due to the test dose. After screening, subjects underwent baseline procedures and randomization on Day-2. Subjects were dosed on Day 1 in the morning after an overnight fast, 1 hour after lights-on. PK blood samples were collected at prespecified timepoints, and PD assessments were performed. Subjects were administered assessments on Day 1 predose and every 2 hours from 2 to 12 hours postdose, and each morning on Days 2 to 6.
For subjects in Part A, Blood samples for determination of plasma concentrations of compound A were collected on Day 1 predose and at 0.25 (15 minutes), 0.5 (30 minutes), 1, 2, 3, 4, 5, 6, 9, 12, 24, 48, 72, 96, 120, 168, and 240 hours after oral administration of compound A, but collected up to 72 hours in the first three cohorts (1, 2.5 and 5 mg compound A groups). PK samples were collected preferentially via an indwelling venous catheter for the first 12 hours and by direct venipuncture thereafter.
Plasma concentrations of compound A were measured using a validated liquid chromatography-mass spectrometry/mass spectrometry (LC-MS/MS) assay.

SMILES: Cc1ncc(OC[C@@]2(c3cccc(F)c3)C[C@H]2C(=O)Nc2ccc(F)cn2)c(C)n1 [Compound A, (1R,2 S)-2-(((2,4-dimethylpyrimidin-5-yl)oxy)methyl)-2-(3-fluorophenyl)-N-(5-fluoropyridin-2-yl) cyclopropanecarboxamide]
- next-day residual sleepiness (KSS, DSST, RTI) vs time-matched plasma concentrations ([1]; PK/PD analyses): did not show any apparent relationship
- exposure-response relationship for WASO ([1]; PK/PD model): log-linear relationship with Cmax
- plasma concentration up to which higher concentrations were associated with larger decreases in LPS ([1]; asymptote above this concentration): approximately 10 ng/mL
- plasma concentration associated with slightly greater increases on the KSS and higher incidence of AEs of somnolence ([1]; at 1 hour after waking): greater than 20 ng/mL
- Apparent clearance ([1]; population PK): independent of dose and time
- PK model ([1]; population PK): 2-compartment model with elimination from the central compartment
- doses predicted to achieve plasma concentration greater than 20 ng/mL at 1 hour after waking in most subjects ([1]; predicted): greater than 10 mg
- plasma concentration associated with minimal or no change from baseline on KSS, PVT Lapses, DSST [2]: below 30 ng/mL
- AUC from 0 to 24 h ([3]; 1 mg, single oral 1 mg): ~17.2 ng·h/mL
- AUC(0-inf) ([3]; 1 mg, single oral 1 mg): ~19.8 ng·h/mL
- AUC(0-t) ([3]; 1 mg, single oral 1 mg): ~19.1 ng·h/mL
- Cmax ([3]; 1 mg, single oral 1 mg): ~5.3 ng/mL
- half-life ([3]; 1 mg, single oral 1 mg): ~12.7 h
- Tmax ([3]; 1 mg, single oral 1 mg): ~1 h
- AUC from 0 to 24 h ([3]; 2.5 mg, single oral 2.5 mg): 56.8 ng·h/mL
- AUC(0-inf) ([3]; 2.5 mg, single oral 2.5 mg): 79.7 ng·h/mL
- AUC(0-t) ([3]; 2.5 mg, single oral 2.5 mg): 80.2 ng·h/mL
- Cmax ([3]; 2.5 mg, single oral 2.5 mg): 15.9 ng/mL
- half-life ([3]; 2.5 mg, single oral 2.5 mg): 30.1 h
- Tmax ([3]; 2.5 mg, single oral 2.5 mg): 1.01 h
- AUC from 0 to 24 h ([3]; 5 mg, single oral 5 mg): 94.6 ng·h/mL
- AUC(0-inf) ([3]; 5 mg, single oral 5 mg): 149 ng·h/mL
- AUC(0-t) ([3]; 5 mg, single oral 5 mg): 128 ng·h/mL
- Cmax ([3]; 5 mg, single oral 5 mg): 22.7 ng/mL
- half-life ([3]; 5 mg, single oral 5 mg): 31.3 h
- Tmax ([3]; 5 mg, single oral 5 mg): 1.55 h
- AUC from 0 to 24 h ([3]; 10 mg, single oral 10 mg): 159 ng·h/mL
- AUC(0-inf) ([3]; 10 mg, single oral 10 mg): 311 ng·h/mL
- AUC(0-t) ([3]; 10 mg, single oral 10 mg): 284 ng·h/mL
- Cmax ([3]; 10 mg, single oral 10 mg): 36 ng/mL
- half-life ([3]; 10 mg, single oral 10 mg): 56.1 h
- Tmax ([3]; 10 mg, single oral 10 mg): 1 h
- AUC from 0 to 24 h ([3]; 25 mg, single oral 25 mg): 654 ng·h/mL
- AUC(0-inf) ([3]; 25 mg, single oral 25 mg): 1540 ng·h/mL
- AUC(0-t) ([3]; 25 mg, single oral 25 mg): 1450 ng·h/mL
- Cmax ([3]; 25 mg, single oral 25 mg): 108 ng/mL
- half-life ([3]; 25 mg, single oral 25 mg): 65.5 h
- Tmax ([3]; 25 mg, single oral 25 mg): 2.01 h
- AUC from 0 to 24 h ([3]; 50 mg, single oral 50 mg): 1110 ng·h/mL
- AUC(0-inf) ([3]; 50 mg, single oral 50 mg): 2150 ng·h/mL
- AUC(0-t) ([3]; 50 mg, single oral 50 mg): 2080 ng·h/mL
- Cmax ([3]; 50 mg, single oral 50 mg): 168 ng/mL
- half-life ([3]; 50 mg, single oral 50 mg): 51.9 h
- Tmax ([3]; 50 mg, single oral 50 mg): 2.53 h
- AUC from 0 to 24 h ([3]; 100 mg, single oral 100 mg): 1930 ng·h/mL
- AUC(0-inf) ([3]; 100 mg, single oral 100 mg): 4740 ng·h/mL
- AUC(0-t) ([3]; 100 mg, single oral 100 mg): 4490 ng·h/mL
- Cmax ([3]; 100 mg, single oral 100 mg): 264 ng/mL
- half-life ([3]; 100 mg, single oral 100 mg): 59.8 h
- Tmax ([3]; 100 mg, single oral 100 mg): 3 h
- AUC from 0 to 24 h ([3]; 200 mg, single oral 200 mg): 4080 ng·h/mL
- AUC(0-inf) ([3]; 200 mg, single oral 200 mg): 10500 ng·h/mL
- AUC(0-t) ([3]; 200 mg, single oral 200 mg): 9840 ng·h/mL
- Cmax ([3]; 200 mg, single oral 200 mg): 431 ng/mL
- half-life ([3]; 200 mg, single oral 200 mg): 65.2 h
- Tmax ([3]; 200 mg, single oral 200 mg): 3 h
- concentration at 9 h ([3]; plasma at 9 h after single oral 1 mg): 0.384 ng/mL
- concentration at 9 h ([3]; plasma at 9 h after single oral 2.5 mg): 1.54 ng/mL
- concentration at 9 h ([3]; plasma at 9 h after single oral 5 mg): 2.68 ng/mL
- concentration at 9 h ([3]; plasma at 9 h after single oral 10 mg): 4.6 ng/mL
- concentration at 9 h ([3]; plasma at 9 h after single oral 25 mg): 21.9 ng/mL
- concentration at 9 h ([3]; plasma at 9 h after single oral 50 mg): 39.3 ng/mL
- concentration at 9 h ([3]; plasma at 9 h after single oral 100 mg): 86 ng/mL
- concentration at 9 h ([3]; plasma at 9 h after single oral 200 mg): 199 ng/mL
